Assay results taken from US20060052368A1 (priority 2002, published 2006).

Molecular target: α7 nAChR subtype (Rattus norvegicus, UniProt Q05941)
Assay type: binding
Settings: read-out: KD of radioligand from saturation curves

α7 nAChR subtype, sequence (Q05941 23-502 limits assumed): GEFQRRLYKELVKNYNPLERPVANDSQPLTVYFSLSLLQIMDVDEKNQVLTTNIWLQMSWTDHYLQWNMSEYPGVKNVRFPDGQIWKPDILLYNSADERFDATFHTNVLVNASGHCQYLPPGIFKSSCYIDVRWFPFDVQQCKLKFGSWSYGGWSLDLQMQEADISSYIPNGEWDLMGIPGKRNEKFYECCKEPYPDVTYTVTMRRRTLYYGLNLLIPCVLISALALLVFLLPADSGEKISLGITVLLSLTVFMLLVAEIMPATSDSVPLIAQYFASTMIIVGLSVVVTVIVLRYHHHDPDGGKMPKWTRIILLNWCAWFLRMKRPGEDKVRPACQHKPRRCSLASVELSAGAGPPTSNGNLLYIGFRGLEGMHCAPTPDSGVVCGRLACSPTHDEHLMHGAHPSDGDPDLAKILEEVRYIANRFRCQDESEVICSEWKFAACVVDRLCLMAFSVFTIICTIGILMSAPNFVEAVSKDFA

Substance: ^125I-α-Bungarotoxin [^125I-α-BTX]
- Kd: 1.67 nM
